According to patent US11286304B2, “Anti-galectin-7 antibody, kit comprising the same, and uses thereof” (Academia Sinica, priority 2018, dated 2022):

Assays:
galectin-7 [1] = test: Galectin-7 protein in lung cancer cells (immunoblot); assay type: cell-based, human; conditions: for effect on fluvastatin-induced galectin-7 upregulation: co-administered with fluvastatin, 200 μM Mevalonate, 20 μM GGPP, 20 μM FPP
Protocol: (§1) CL83, CL141, CL100, CL25, PC9, PC9-IR, CL97, H1975, and H3255 cells were obtained from Dr. Pan-Chyr Yang (National Taiwan University, Taiwan), and A-431 (ATCC© CRL-1555™), H1650 ((ATCC© CRL-5883™)) and HCC827 ((ATCC© CRL-2868™)) cells were purchased from ATCC. Cells were cultured in RPMI 1640 medium supplemented with 10% fetal bovine serum (Gibco). The mRNA of A549, H23, H226BR, H358, H460, H661, H928, H1299, H1435, and H1437 cells were produced by conventional method, such as the method as described herein.
Lysates from different lung cancer cell samples were prepared and aliquots containing 30 μg of protein from each lysate were analyzed using either 10% or 12% sodium dodecyl sulfate-polyacrylamide gel electrophoresis (SDS-PAGE). A polyvinylidene difluoride Immobilon H-bond membrane (EMD Millipore) was used for immunoblot analysis. The primary antibody against galectin-7 (Novagen) was used.

IL-6 = IL-6 production by keratinocytes (ELISA); assay type: cell-based, human; conditions: for IL-6 production induced by IL-17A: galectin-7 knockdown keratinocytes, data not shown; for IL-6 production: HaCaT and HEKn cells subjected to immune stimuli, ELISA
Protocol: (§2) To measure the concentrations of proinflammatory cytokines secreted by keratinocytes, 2×10^4 cells were seeded in 96-well plates. Cells were incubated for 24 hours and then treated with 50 μg/ml LPS, 100 ng/ml human TNF-α, 100 or 200 ng/ml human IL-17A, 200 ng/ml human IL-22, 100 ng/ml human IL-23, or 50 ng/ml IFN-γ at 37° C. for 48 hours. In addition, the MEK inhibitor PD98059 was added along with stimulation by LPS or IL-17A (48 hours). The supernatants were then collected and analyzed by ELISAs, which were performed using a specific combination of paired antibodies (capture and detection antibodies).

IL-8 = IL-8 production by keratinocytes (ELISA); assay type: cell-based, human; conditions: for IL-8 production induced by IL-17A: galectin-7 knockdown keratinocytes, data not shown; for IL-8 production: HaCaT and HEKn cells subjected to immune stimuli, ELISA
Protocol: as §2

galectin-7 [2] = test: Galectin-7 expression in keratinocytes (real-time PCR, immunoblot); assay type: cell-based, human; conditions: for galectin-7 expression: keratinocytes, other statin drugs, data not shown; for galectin-7 mRNA and protein expression: 24 hours, methylprednisolone 10.6 μM, tobramycin 8.6 μM, fluvastatin 9.2 μM, pempidine 13 μM; for galectin-7 protein expression: treated with cytokines for 2 days, immunoblot
Protocol: Human keratinocyte cell line HaCaT was maintained at 37° C. in Dulbecco's modified Eagle's medium (DMEM) supplemented with 10% of fetal bovine serum (FBS), 2 mM glutamine, 100 U/ml penicillin and 100 μg/ml streptomycin. Short hairpin RNA (shRNA) reagents were obtained from the National RNAi Core Facility located at the Institute of Molecular Biology and Genomic Research Center, Academia Sinica, supported by the National Core Facility Program for Biotechnology Grants of NSC. Four shRNAs with clone IDs of TRCN0000057393, TRCN0000057394, TRCN0000057395, and TRCN0000057396 were used to generate stable galectin-7 knockdown HaCaT clones. HaCaT cells were infected with one of the four shRNA-expressing lentiviruses and puromycin was employed to select stable cell clones after 3 days of infection. After puromycin selection, four individual pooled clones were cultured in puromycin-free medium for 2 weeks before further analysis.
Primary neonatal human epithelial keratinocytes, HEKn cells, were purchased from Gibco. HEKn cells were cultured at 37° C. in keratinocyte serum-free medium (K-SFM) supplemented with 30 μg/ml bovine pituitary extract and 5 ng/ml recombinant human epidermal growth factor from the same company. Compared with HaCaT cells, HEKn cells have a limited proliferation ability and are not suitable for establishing shRNA-based stable knockdown cells; therefore, a small interfering RNA (siRNA) oligo was used to transiently knock down the expression of galectin-7. The Silencer® Select siRNAs were purchased from Invitrogen, including negative control #1 and a predesigned siRNA targeting human galectin-7 (Catalog number: s230574, which targets the sequence of exon 3 of NM_002307.3). Thirty picomoles of siRNAs were delivered into HEKn cells in a 6-well plate setup by means of Lipofectamine 2000.
Cells were harvested and lysed in RIPA lysis buffer containing 1% of Triton X-100 and a protease inhibitor cocktail, and total protein concentrations were measured with a protein assay kit. Proteins in the samples of the lysates with the same amounts of total protein were separated by sodium dodecyl sulfate polyacrylamide gel electrophoresis (SDS-PAGE) and analyzed by immunoblotting. Primary antibodies against phospho-Erk1 (pT202)/Erk2 (pT185), Erk1, Erk2, NF-κB p65, phospho-NF-κB p65 (pS536), IκBα, phospho-IκBα pS32, β-actin, or GAPDH were applied to detect the corresponding proteins. Horseradish peroxidase (HRP)-conjugated secondary antibodies against mouse, rabbit, or goat IgG were then incubated with the membranes, and proteins were visualized by chemiluminescence according to the manufacturer's instructions. Protein quantification was performed by software.
Total RNAs (including mRNA and miRNA) were extracted from cultured cells or mouse ears with the TRIzol Reagent. For measurement of human galectin-7, IL-6, IL-8, IL-17A, and IFN-γ levels, mRNAs were reverse-transcribed into cDNA by means of the cDNA synthesis kit, and real-time PCR was carried out with specific probes accompanied with primers targeting humangalectin-7, IL-6, and IL-8 according to the manufacturer's instructions.

galectin-7 [3] = test: Galectin-7 levels in lung cancer tumors transplanted in NOD SCID mice (IHC, immunoblot); assay type: in vivo; conditions: NOD SCID mice with A549, PC9, PC9-IR cells, 30 mg/kg daily oral gavage, day 21, vs saline
Protocol: NOD.CB17-Prkdcscid/JNarl mice obtained from National Laboratory Animal Center (Taiwan) were engrafted 2×10^6 lung cancer cells subcutaneously at the left and right flanks of the mice. After 10 days of tumor growth, mice were treated by oral gavage with 30 mg/kg fluvastatin or lovastatin in saline solution, or saline solution alone as control, once per day for 21 days. The tumor plaques were harvested and each of them was cut into two pieces. One piece was for immunoblot analysis, and the other one was fixed with 10% formalin and embedded into paraffin block for IHC staining. All animal studies were conducted in the experimental animal facilities of Institute of Biomedical Sciences, Academia Sinica, Taipei, Taiwan, in accordance to institutional rules and ethical guidelines for experimental animal care.

S100A7 = S100A7 mRNA expression in HaCaT cells (real-time PCR); assay type: cell-based, human; conditions: 24 hours, methylprednisolone 10.6 μM, tobramycin 8.6 μM, fluvastatin 9.2 μM, pempidine 13 μM
galectin-7 [4] = test: Galectin-7 mRNA in lung cancer cell lines (qPCR); assay type: cell-based, human; conditions: CL100 and PC9-IR cells, 24 hours; methylprednisolone 10.6 μM, tobramycin 8.6 μM, fluvastatin 9.2 μM, pempidine 13 μM
Protocol: as §1
Total RNA from each lung cancer cell clone was extracted using TRIzol Reagent (Invitrogen), and cDNA for real-time PCR was generated using the iScript cDNA synthesis kit (Bio-Rad). Quantitative real-time PCR was performed using TaqMan buffer (Roche), and the primers and probes were designed using the Roche Universal Library (UPL). […] For real-time PCR, the CFX Connect Real-Time PCR System (Bio-Rad) was used, and the data were analyzed using CFX Manager software, in which the ΔΔCt method was employed to normalize the data against the endogenous control GAPDH.

miR-146a = miR-146a expression in keratinocytes (real-time PCR); assay type: cell-based, human; conditions: HaCaT and HEKn cells treated with IL-17A
Protocol: For miR-146a quantification, total RNA samples were converted to cDNA, and real-time PCR was conducted with specific primers targeting miR-146a. Human GAPDH and U6 snRNA were selected as internal controls for normalization of the levels of mRNAs and miRNAs, respectively. Relative levels of mRNAs and miRNAs were calculated, and fold changes were obtained by the ΔΔCt method and compared with vector-only control cells.

**Q.** Which “effect on fluvastatin-induced galectin-7 upregulation” value (galectin-7 [1]; PC9-IR cells, 24 hours) does the source give for CC(C)=CCC/C(C)=C/CC/C(C)=C/COP(=O)(O)OP(=O)(O)O [FPP] here?
**A.** blocked

**Q.** For CC(C)=CCCC(C)=CCCC(C)=CCSc1ccccc1C(=O)O [FTS, farnesyl thiosalicylic acid], which galectin-7 expression (galectin-7 [1]; PC9-IR cells, 1 μM fluvastatin, FTS, 24 hours) is on record?
**A.** increased galectin-7 expression

**Q.** How did the “effect on fluvastatin-induced galectin-7 upregulation” value (galectin-7 [1]; PC9-IR cells, 24 hours) turn out when CC(C)=CCC/C(C)=C/CC/C(C)=C/CC/C(C)=C/COP(=O)(O)OP(=O)(O)O [GGPP] was run?
**A.** blocked

**Q.** Which “IL-6 production induced by IL-17A” value (IL-6) does the source give for COc1cccc(-c2cc(=O)c3ccccc3o2)c1N [PD98059] here?
**A.** significantly blocked

**Q.** And the “IL-8 production induced by IL-17A” value (IL-8)?
**A.** significantly blocked

**Q.** How did the “IL-6 production induced by IL-17A” value (IL-6) turn out when S=C(S)N1CCCC1 [PDTC] was run?
**A.** not blocked

**Q.** And the “IL-8 production induced by IL-17A” value (IL-8)?
**A.** not blocked

**Q.** With C[S+]([O-])c1ccc(-c2nc(-c3ccncc3)c(-c3ccc(F)cc3)[nH]2)cc1 (centres unmarked) [SB203580] as the molecule, how does the “IL-6 production induced by IL-17A” value (IL-6) read?
**A.** not blocked

**Q.** And the “IL-8 production induced by IL-17A” value (IL-8)?
**A.** not blocked

**Q.** Which galectin-7 expression (galectin-7 [2]) does the source give for CC(C)c1c(C(=O)Nc2ccccc2)c(-c2ccccc2)c(-c2ccc(F)cc2)n1CC[C@@H](O)C[C@@H](O)CC(=O)O [atorvastatin] here?
**A.** induced galectin-7 expression

**Q.** For COc1cc2ncnc(Nc3ccc(F)c(Cl)c3)c2cc1OCCCN1CCOCC1 [gefitinib], which “galectin-7 level (endogenous)” value (galectin-7 [1]; CL25 and CL100 cells, 10 μM, 24 hours) is on record?
**A.** downregulated

**Q.** And the “level of ectopically overexpressed galectin-7” value (galectin-7 [1]; CL83, CL141 and PC9 cells, 10 μM, 24 hours)?
**A.** also downregulated

**Q.** With CC[C@H](C)C(=O)O[C@H]1C[C@@H](C)C=C2C=C[C@H](C)[C@H](CC[C@@H]3C[C@@H](O)CC(=O)O3)[C@H]21 [lovastatin] as the molecule, how does the galectin-7 expression (galectin-7 [2]) read?
**A.** induced galectin-7 expression

**Q.** What about the “galectin-7 expression in transplanted tumors” value (galectin-7 [3]) of the same molecule?
**A.** increased

**Q.** CC(O)(CCO)CC(=O)O (centres unmarked) [mevalonate] was tested. Which “effect on statin-induced upregulation of galectin-7” value (galectin-7 [1]; PC9-IR cells, 200 μM mevalonate with 10 μM statins, 24 hours) did it give?
**A.** reversed

**Q.** And the “effect on fluvastatin-induced galectin-7 upregulation” value (galectin-7 [1]; PC9-IR cells, 24 hours)?
**A.** reversed

**Q.** Which galectin-7 expression (galectin-7 [2]) does the source give for CC[C@H](C)C(=O)O[C@H]1CCC=C2C=C[C@H](C)[C@H](CC[C@@H]3C[C@@H](O)CC(=O)O3)[C@H]21 [mevastatin] here?
**A.** induced galectin-7 expression

**Q.** CN1C(C)(C)CCCC1(C)C [pempidine] was tested. Which “galectin-7 mRNA and protein expression” value (galectin-7 [2]; HaCaT cells) did it give?
**A.** only fluvastatin induced

**Q.** And the “S100A7 mRNA expression” value (S100A7)?
**A.** only fluvastatin

**Q.** What about the “galectin-7 expression (LGLAS7 mRNA)” value (galectin-7 [4]) of the same molecule?
**A.** only fluvastatin induced

**Q.** Which galectin-7 expression (galectin-7 [2]) does the source give for O=C(O)C[C@H](O)C[C@H](O)/C=C/c1c(C2CC2)nc2ccccc2c1-c1ccc(F)cc1 [pitavastatin] here?
**A.** induced galectin-7 expression

**Q.** What does the source list for NC[C@H]1O[C@H](O[C@H]2[C@H](O)[C@@H](O[C@H]3O[C@H](CO)[C@@H](O)[C@H](N)[C@H]3O)[C@H](N)C[C@@H]2N)[C@H](N)C[C@@H]1O [tobramycin]?
**A.** galectin-7 mRNA and protein expression (galectin-7 [2]; HaCaT cells): only fluvastatin induced; S100A7 mRNA expression (S100A7): only fluvastatin; galectin-7 expression (LGLAS7 mRNA) (galectin-7 [4]): only fluvastatin induced

**Q.** Which results are given for “IFN-γ: interferon (IFN)-γ, immune stimulus”?
**A.** galectin-7 protein expression (galectin-7 [2]; HaCaT cells): modest effects; IL-6 production (IL-6): only IL-17A (FIG. 2), TNF-α, and LPS (data not shown) induced; IL-8 production (IL-8): only IL-17A (FIG. 2), TNF-α, and LPS (data not shown) induced

**Q.** How did the galectin-7 protein expression (galectin-7 [2]; HEKn cells) turn out when “IL-17A: cytokine known to promote psoriatic inflammation” was run?
**A.** reduced

**Q.** What about the galectin-7 protein expression (galectin-7 [2]; HaCaT cells) of the same molecule?
**A.** reduced

**Q.** What about the IL-6 production (IL-6) of the same molecule?
**A.** induced

**Q.** And the IL-8 production (IL-8)?
**A.** induced

**Q.** And the miR-146a expression (miR-146a)?
**A.** induced miR-146a expression

**Q.** IL-21: immune stimulus was tested. Which IL-6 production (IL-6) did it give?
**A.** only IL-17A (FIG. 2), TNF-α, and LPS (data not shown) induced

**Q.** And the IL-8 production (IL-8)?
**A.** only IL-17A (FIG. 2), TNF-α, and LPS (data not shown) induced

**Q.** For TNF-α, which galectin-7 protein expression (galectin-7 [2]; HaCaT cells) is on record?
**A.** significantly reduced

**Q.** What about the IL-6 production (IL-6) of the same molecule?
**A.** induced

**Q.** And the IL-8 production (IL-8)?
**A.** induced

**Q.** Which galectin-7 expression (galectin-7 [1]; CL25, CL100, PC9 and PC9-IR cells starved overnight, 10 ng/ml EGF) does the source give for “epidermal growth factor (EGF): epidermal growth factor, activates EGFR signaling” here?
**A.** transiently upregulated
